Data: US20130053430A1, “MODULATION OF CETP EXPRESSION” (Isis Pharmaceuticals, Inc., priority 2010, published 2013)
e = 2'-O-(2-methoxyethyl) (MOE); d = 2'-deoxy (DNA)

Assays:
[1] = Plasma cholesterol and triglyceride levels in huApoB/huCETP/mLDLr mouse model (Example 7); assay type: in vivo, mice
Description: The huApoB^+/−huCETP^+/−mLDLr^+/− mice were divided into five groups of 5-7 mice each. […] The saline-injected group served as the control group to which oligonucleotide-treated groups were compared. […] This group served a negative control for the effects of the antisense oligonucleotides against CETP. The groups are further described in Table 27, and are designated letters A-F, by which they will be referred from henceforth.
HDL and LDL cholesterol were individually measured by HPLC. Triglyceride levels were measured on weeks 0, 3 and 6 with the use of a commercially available triglyceride kit (DCL Triglyceride Reagent; Diagnostic Chemicals Ltd.).

[2] = Body and organ weights of huCETP transgenic mice (Example 5); assay type: in vivo; settings: 50 mg/kg i.p. twice per week
Procedure: The mice were divided into five treatment groups. The first four groups received intraperitoneal injections of ISIS 349511, ISIS 349512, ISIS 349515, or ISIS 349517 at a dose of 50 mg/kg twice per week for 6 weeks. The fifth group received intraperitoneal injections of saline twice weekly for 6 weeks.
The body weights of the mice were measured pre-dose and regularly during the treatment period. The body weights are presented in Table 10, and are expressed in grams.

[3] = Liver function, plasma ALT and AST (Example 6); assay type: in vivo, mice; settings: 50 mg/kg s.c. twice per week
Description: (§1) The normal chow-fed mice were divided into three treatment groups. The cholesterol-enriched chow-fed mice were divided into three treatment groups. […] One chow-fed group and one cholesterol-enriched chow-fed group received subcutaneous injections of saline twice weekly for 6 weeks. The saline-injected groups served as the control groups to which the corresponding oligonucleotide-treated groups were compared.
Plasma concentrations of ALT (alanine transaminase) and AST (aspartate transaminase) at weeks 0, 3 and 6 were measured and the results are presented in Tables 18 and 19 expressed in IU/L.

[4] = Plasma glucose (Example 6); assay type: in vivo, mice; settings: 50 mg/kg s.c. twice per week
Procedure: as §1
Plasma glucose values were determined using a Beckman Glucose Analyzer II (Beckman Coulter) by a glucose oxidase method (Lott, J. A. et al., Clin. Chem. 21: 1754-1760, 1975).

[5] = Plasma cholesterol and triglyceride levels (Example 6); assay type: in vivo, mice; settings: 50 mg/kg s.c. twice per week
Description: as §1
Plasma cholesterol were extracted at weeks 3 and 6 by the method of Bligh and Dyer (Bligh, E. G. and Dyer, W. J. Can. J. Biochem. Physiol. 37: 911-917, 1959) and measured on weeks 0, 3 and 6 with an Olympus clinical analyzer (Hitachi Olympus AU400e, Melville, N.Y.). HDL, LDL and VLDL cholesterol were individually measured by HPLC. Triglyceride levels were measured on weeks 0, 3 and 6 with the use of a commercially available triglyceride kit (DCL Triglyceride Reagent; Diagnostic Chemicals Ltd.). VLDL levels were measured on week 6. The results are presented in Tables 22-26 and are expressed in mg/dL.

[6] = huApoB+/−huCETP+/−mLDLr+/− mice (Groups B-E), ASO 25 mg/kg s.c. twice/week, Week 0
[7] = huApoB+/−huCETP+/−mLDLr+/− mice (Groups B-E), ASO 25 mg/kg s.c. twice/week, Week 3
[8] = huApoB+/−huCETP+/−mLDLr+/− mice (Groups B-E), ASO 25 mg/kg s.c. twice/week, Week 6
[9] = huApoB+/−huCETP−/−mLDLr+/− mice (Group F), 25 mg/kg s.c. twice/week, Week 0
[10] = huApoB+/−huCETP−/−mLDLr+/− mice (Group F), 25 mg/kg s.c. twice/week, Week 3
[11] = huApoB+/−huCETP−/−mLDLr+/− mice (Group F), 25 mg/kg s.c. twice/week, Week 6

ISIS 141923: CCTTCCCTGAAGGTTCCTCC, 5-10-5 MOE gapmer, a control oligonucleotide which has no known murine target (sugars from the 5' end e5 d10 e5, backbone and methylation of C not given here) [reference compound]
% HDL/total cholesterol [1, 6]: 25%
HDL cholesterol levels [1, 6]: 50 mg/dL
LDL cholesterol levels [1, 6]: 123 mg/dL
Total cholesterol levels [1, 6]: 201 mg/dL
Triglyceride levels [1, 6]: 137 mg/dL
% HDL/total cholesterol [1, 7]: 24%
HDL cholesterol levels [1, 7]: 55 mg/dL
LDL cholesterol levels [1, 7]: 149 mg/dL
Total cholesterol levels [1, 7]: 228 mg/dL
Triglyceride levels [1, 7]: 177 mg/dL
% HDL/total cholesterol [1, 8]: 31%
HDL cholesterol levels [1, 8]: 74 mg/dL
LDL cholesterol levels [1, 8]: 150 mg/dL
Total cholesterol levels [1, 8]: 235 mg/dL
Triglyceride levels [1, 8]: 192 mg/dL

ISIS 349511: 5-10-5 MOE gapmer CCCGACCTCCTTGGAGACTT (sugars from the 5' end e5 d10 e5, backbone and methylation of C not given here)
Body weights ([2]; Week 0): 19 grams
Body weights ([2]; Week 1): 21 grams
Body weights ([2]; Week 2): 23 grams
Body weights ([2]; Week 4): 25 grams
Body weights ([2]; week 6): 26 grams
Organ weights, Kidney ([2]; week 6): 312.5 mg
Organ weights, Liver ([2]; week 6): 1.3 g
Organ weights, Spleen ([2]; week 6): 76.0 mg
Alanine transaminase levels ([3]; Cholesterol chow, Week 0): 28 IU/L
Aspartate transaminase levels ([3]; Cholesterol chow, Week 0): 49 IU/L
Alanine transaminase levels ([3]; Cholesterol chow, Week 3): 28 IU/L
Aspartate transaminase levels ([3]; Cholesterol chow, Week 3): 44 IU/L
Alanine transaminase levels ([3]; Cholesterol chow, Week 6): 66 IU/L
Aspartate transaminase levels ([3]; Cholesterol chow, Week 6): 123 IU/L
Alanine transaminase levels ([3]; Normal chow, Week 0): 16 IU/L
Aspartate transaminase levels ([3]; Normal chow, Week 0): 89 IU/L
Alanine transaminase levels ([3]; Normal chow, Week 3): 22 IU/L
Aspartate transaminase levels ([3]; Normal chow, Week 3): 47 IU/L
Alanine transaminase levels ([3]; Normal chow, Week 6): 22 IU/L
Aspartate transaminase levels ([3]; Normal chow, Week 6): 81 IU/L
Glucose levels ([4]; Cholesterol chow, Week 0): 238 mg/dL
Glucose levels ([4]; Cholesterol chow, Week 3): 289 mg/dL
Glucose levels ([4]; Cholesterol chow, Week 6): 225 mg/dL
Glucose levels ([4]; Normal chow, Week 0): 239 mg/dL
Glucose levels ([4]; Normal chow, Week 3): 288 mg/dL
Glucose levels ([4]; Normal chow, Week 6): 206 mg/dL
HDL cholesterol levels ([5]; Cholesterol chow, Week 0): 51 mg/dL
LDL cholesterol levels ([5]; Cholesterol chow, Week 0): 179 mg/dL
Total cholesterol levels ([5]; Cholesterol chow, Week 0): 252 mg/dL
Triglyceride levels ([5]; Cholesterol chow, Week 0): 101 mg/dL
HDL cholesterol levels ([5]; Cholesterol chow, Week 3): 85 mg/dL
LDL cholesterol levels ([5]; Cholesterol chow, Week 3): 576 mg/dL
Total cholesterol levels ([5]; Cholesterol chow, Week 3): 714 mg/dL
Triglyceride levels ([5]; Cholesterol chow, Week 3): 94 mg/dL
HDL cholesterol levels ([5]; Cholesterol chow, Week 6): 136 mg/dL
LDL cholesterol levels ([5]; Cholesterol chow, Week 6): 558 mg/dL
Total cholesterol levels ([5]; Cholesterol chow, Week 6): 809 mg/dL
Triglyceride levels ([5]; Cholesterol chow, Week 6): 99 mg/dL
VLDL cholesterol levels ([5]; Cholesterol chow, Week 6): 115 mg/dL
HDL cholesterol levels ([5]; Normal chow, Week 0): 51 mg/dL
LDL cholesterol levels ([5]; Normal chow, Week 0): 176 mg/dL
Total cholesterol levels ([5]; Normal chow, Week 0): 254 mg/dL
Triglyceride levels ([5]; Normal chow, Week 0): 80 mg/dL
HDL cholesterol levels ([5]; Normal chow, Week 3): 56 mg/dL
LDL cholesterol levels ([5]; Normal chow, Week 3): 148 mg/dL
Total cholesterol levels ([5]; Normal chow, Week 3): 227 mg/dL
Triglyceride levels ([5]; Normal chow, Week 3): 90 mg/dL
HDL cholesterol levels ([5]; Normal chow, Week 6): 98 mg/dL
LDL cholesterol levels ([5]; Normal chow, Week 6): 178 mg/dL
Total cholesterol levels ([5]; Normal chow, Week 6): 327 mg/dL
Triglyceride levels ([5]; Normal chow, Week 6): 101 mg/dL
VLDL cholesterol levels ([5]; Normal chow, Week 6): 50 mg/dL
% HDL/total cholesterol [1, 6]: 24%
HDL cholesterol levels [1, 6]: 49 mg/dL
LDL cholesterol levels [1, 6]: 129 mg/dL
Total cholesterol levels [1, 6]: 208 mg/dL
Triglyceride levels [1, 6]: 145 mg/dL
% HDL/total cholesterol [1, 7]: 30%
HDL cholesterol levels [1, 7]: 64 mg/dL
LDL cholesterol levels [1, 7]: 126 mg/dL
Total cholesterol levels [1, 7]: 212 mg/dL
Triglyceride levels [1, 7]: 199 mg/dL
% HDL/total cholesterol [1, 8]: 35%
HDL cholesterol levels [1, 8]: 77 mg/dL
LDL cholesterol levels [1, 8]: 132 mg/dL
Total cholesterol levels [1, 8]: 223 mg/dL
Triglyceride levels [1, 8]: 248 mg/dL

ISIS 349517: 5-10-5 MOE gapmer CAGCACTTTAATGCCAGTGG (sugars from the 5' end e5 d10 e5, backbone and methylation of C not given here)
Body weights ([2]; Week 0): 25 grams
Body weights ([2]; Week 1): 27 grams
Body weights ([2]; Week 2): 28 grams
Body weights ([2]; Week 4): 28 grams
Body weights ([2]; week 6): 29 grams
Organ weights, Kidney ([2]; week 6): 355.5 mg
Organ weights, Liver ([2]; week 6): 1.7 g
Organ weights, Spleen ([2]; week 6): 89.0 mg
Alanine transaminase levels ([3]; Cholesterol chow, Week 0): 19 IU/L
Aspartate transaminase levels ([3]; Cholesterol chow, Week 0): 54 IU/L
Alanine transaminase levels ([3]; Cholesterol chow, Week 3): 56 IU/L
Aspartate transaminase levels ([3]; Cholesterol chow, Week 3): 72 IU/L
Alanine transaminase levels ([3]; Cholesterol chow, Week 6): 76 IU/L
Aspartate transaminase levels ([3]; Cholesterol chow, Week 6): 113 IU/L
Alanine transaminase levels ([3]; Normal chow, Week 0): 17 IU/L
Aspartate transaminase levels ([3]; Normal chow, Week 0): 75 IU/L
Alanine transaminase levels ([3]; Normal chow, Week 3): 24 IU/L
Aspartate transaminase levels ([3]; Normal chow, Week 3): 61 IU/L
Alanine transaminase levels ([3]; Normal chow, Week 6): 158 IU/L
Aspartate transaminase levels ([3]; Normal chow, Week 6): 196 IU/L
Glucose levels ([4]; Cholesterol chow, Week 0): 277 mg/dL
Glucose levels ([4]; Cholesterol chow, Week 3): 245 mg/dL
Glucose levels ([4]; Cholesterol chow, Week 6): 240 mg/dL
Glucose levels ([4]; Normal chow, Week 0): 263 mg/dL
Glucose levels ([4]; Normal chow, Week 3): 257 mg/dL
Glucose levels ([4]; Normal chow, Week 6): 211 mg/dL
HDL cholesterol levels ([5]; Cholesterol chow, Week 0): 49 mg/dL
LDL cholesterol levels ([5]; Cholesterol chow, Week 0): 134 mg/dL
Total cholesterol levels ([5]; Cholesterol chow, Week 0): 201 mg/dL
Triglyceride levels ([5]; Cholesterol chow, Week 0): 84 mg/dL
HDL cholesterol levels ([5]; Cholesterol chow, Week 3): 78 mg/dL
LDL cholesterol levels ([5]; Cholesterol chow, Week 3): 597 mg/dL
Total cholesterol levels ([5]; Cholesterol chow, Week 3): 739 mg/dL
Triglyceride levels ([5]; Cholesterol chow, Week 3): 107 mg/dL
HDL cholesterol levels ([5]; Cholesterol chow, Week 6): 122 mg/dL
LDL cholesterol levels ([5]; Cholesterol chow, Week 6): 486 mg/dL
Total cholesterol levels ([5]; Cholesterol chow, Week 6): 695 mg/dL
Triglyceride levels ([5]; Cholesterol chow, Week 6): 102 mg/dL
VLDL cholesterol levels ([5]; Cholesterol chow, Week 6): 88 mg/dL
HDL cholesterol levels ([5]; Normal chow, Week 0): 53 mg/dL
LDL cholesterol levels ([5]; Normal chow, Week 0): 162 mg/dL
Total cholesterol levels ([5]; Normal chow, Week 0): 237 mg/dL
Triglyceride levels ([5]; Normal chow, Week 0): 66 mg/dL
HDL cholesterol levels ([5]; Normal chow, Week 3): 64 mg/dL
LDL cholesterol levels ([5]; Normal chow, Week 3): 146 mg/dL
Total cholesterol levels ([5]; Normal chow, Week 3): 238 mg/dL
Triglyceride levels ([5]; Normal chow, Week 3): 97 mg/dL
HDL cholesterol levels ([5]; Normal chow, Week 6): 100 mg/dL
LDL cholesterol levels ([5]; Normal chow, Week 6): 220 mg/dL
Total cholesterol levels ([5]; Normal chow, Week 6): 375 mg/dL
Triglyceride levels ([5]; Normal chow, Week 6): 91 mg/dL
VLDL cholesterol levels ([5]; Normal chow, Week 6): 55 mg/dL
% HDL/total cholesterol [1, 6]: 25%
HDL cholesterol levels [1, 6]: 48 mg/dL
LDL cholesterol levels [1, 6]: 116 mg/dL
Total cholesterol levels [1, 6]: 193 mg/dL
Triglyceride levels [1, 6]: 142 mg/dL
% HDL/total cholesterol [1, 7]: 40%
HDL cholesterol levels [1, 7]: 68 mg/dL
LDL cholesterol levels [1, 7]: 87 mg/dL
Total cholesterol levels [1, 7]: 171 mg/dL
Triglyceride levels [1, 7]: 177 mg/dL
% HDL/total cholesterol [1, 8]: 37%
HDL cholesterol levels [1, 8]: 72 mg/dL
LDL cholesterol levels [1, 8]: 109 mg/dL
Total cholesterol levels [1, 8]: 197 mg/dL
Triglyceride levels [1, 8]: 210 mg/dL
% HDL/total cholesterol [1, 9]: 41%
HDL cholesterol levels [1, 9]: 65 mg/dL
LDL cholesterol levels [1, 9]: 73 mg/dL
Total cholesterol levels [1, 9]: 158 mg/dL
Triglyceride levels [1, 9]: 150 mg/dL
% HDL/total cholesterol [1, 10]: 37%
HDL cholesterol levels [1, 10]: 65 mg/dL
LDL cholesterol levels [1, 10]: 91 mg/dL
Total cholesterol levels [1, 10]: 175 mg/dL
Triglyceride levels [1, 10]: 213 mg/dL
% HDL/total cholesterol [1, 11]: 42%
HDL cholesterol levels [1, 11]: 75 mg/dL
LDL cholesterol levels [1, 11]: 95 mg/dL
Total cholesterol levels [1, 11]: 177 mg/dL
Triglyceride levels [1, 11]: 201 mg/dL
